Among the test systems are DLD-1 colon; DMS 273 small cell lung; HOP-18 NSCLC; M19-MEL melanoma; P388 leukemia; P388/ADR leukemia; SN12K1 renal; LXFL 529 NSCLC.
Common to all, as to assay: NCI tumour cell line growth inhibition, 48 h

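All cell lines were grown in 96-well plates and treated with compound for 48 hours. Definition used: TGI = concentration required for complete inhibition of growth.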

As for `Cc1[nH]c(=O)[nH]c(=O)c1/C=C/C(=O)NC(CO)CS(=O)Cc1ccccc1` (configuration not stated), the TGI with DLD-1 colon, in the test with DMS 273 small cell lung, in the test on HOP-18 NSCLC, in the test on M19-MEL melanoma, with P388 leukemia and with P388/ADR leukemia was greater than 300 µM throughout. The compound also yielded a TGI in the test on SN12K1 renal greater than 300 µM.
`CC(C)C(=O)CC(c1ccc(Cl)cc1)N1N=C(C(C)C)CC1c1ccc(Cl)cc1` (configuration not stated): the TGI in the test with LXFL 529 NSCLC was greater than 100 µM; in the test on M19-MEL melanoma, greater than 55.6 µM.
As for `N#CCCN(CCC#N)c1ccc(/C=C(\NC(=O)c2cc([N+](=O)[O-])ccc2Cl)C(=O)Nc2ccccc2)cc1`, the TGI in the test with DLD-1 colon, with DMS 273 small cell lung, with HOP-18 NSCLC, in the test on LXFL 529 NSCLC and in the test with M19-MEL melanoma was greater than 100 µM each time.
Consider `CCCn1cc2c(SC)nc(SC)nc2n1`, for which the TGI in the test with DLD-1 colon, with DMS 273 small cell lung and in the test on HOP-18 NSCLC was greater than 100 µM each time.
